These results are taken from PubChem BioAssay AID200 (DTP/NCI, 2004).

Where “and” joins values, the source holds several entries; their conditions need not be identical. Equal entries are not always repeated. Toxic doses and inconclusive results are not listed.

The test system of the assay is B6C3F1 mice, B16 melanoma ip, median survival T/C. As to the kind of experiment: NCI In Vivo Anticancer Drug Screen. Data for tumor model B16 Melanoma (intraperitoneal) in B6C3F1 mice. The conditions noted are these: endpoint: median survival time, schedule: Q01DX009 (ip), higher = longer survival. In a few lines: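 Transplantable tumor in mice; treated vs vehicle control groups; survival or tumor size measured; value = T/C ratio.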

Where [1] appears, read: dose: 0.25 mg/kg/injection, vehicle: saline.
Where [2] appears, read: dose: 0.5 mg/kg/injection, vehicle: saline.
[3] abbreviates: dose: 1.0 mg/kg/injection, vehicle: saline.
Where [4] appears, read: dose: 12.5 mg/kg/injection, vehicle: Klucel (hydroxypropylcellulose) (HPC).
[5] abbreviates: dose: 100.0 mg/kg/injection, vehicle: Klucel (hydroxypropylcellulose) (HPC).
Setting [6] is: dose: 200.0 mg/kg/injection, vehicle: Klucel (hydroxypropylcellulose) (HPC).
[7] abbreviates: dose: 25.0 mg/kg/injection, vehicle: saline.
Where [8] appears, read: dose: 50.0 mg/kg/injection, vehicle: saline.
The mark [9] stands for this setting: dose: 3.12 mg/kg/injection, vehicle: saline with Tween-80.
Where [10] appears, read: dose: 6.25 mg/kg/injection, vehicle: saline with Tween-80.
The mark [11] stands for this setting: dose: 12.5 mg/kg/injection, vehicle: saline with Tween-80.
Setting [12] is: dose: 6.25 mg/kg/injection, vehicle: Klucel (hydroxypropylcellulose) (HPC).
[13] abbreviates: dose: 25.0 mg/kg/injection, vehicle: saline with Tween-80.
Setting [14] is: dose: 50.0 mg/kg/injection, vehicle: saline with Tween-80.
Setting [15] is: dose: 100.0 mg/kg/injection, vehicle: saline with Tween-80.
Setting [16] is: dose: 12.5 mg/kg/injection, vehicle: saline.
The mark [17] stands for this setting: dose: 400.0 mg/kg/injection, vehicle: Klucel (hydroxypropylcellulose) (HPC).

Consider `COc1cc2c(c(OC)c1OC)-c1ccc(OC)c(=O)cc1[C@@H](NC(C)=O)CC2`, for which the T/C reads like this: (dose: 0.02 mg/kg/injection, vehicle: saline) 108 % of control; (dose: 0.04 mg/kg/injection, vehicle: saline) 123 % of control; (dose: 0.13 mg/kg/injection, vehicle: Klucel (hydroxypropylcellulose) (HPC)) 158 % of control; (dose: 0.19 mg/kg/injection, vehicle: saline) 156 % of control; (dose: 0.25 mg/kg/injection, vehicle: Klucel (hydroxypropylcellulose) (HPC)) 155 % of control; under setting [1], 164 % of control. Further, the T/C (dose: 0.37 mg/kg/injection, vehicle: saline) is 167 % of control; the T/C (dose: 0.38 mg/kg/injection, vehicle: saline) is 168 % of control; the T/C (dose: 0.5 mg/kg/injection, vehicle: Klucel (hydroxypropylcellulose) (HPC)) is 173 % of control; the T/C under setting [2] is 154 % of control; the T/C (dose: 0.5 mg/kg/injection, vehicle: water) is 157 % of control; the T/C under setting [3] is 154 % of control. The T/C is 161 % of control (dose: 125.0 micrograms/kg/injection, vehicle: water); 154 % of control (dose: 250.0 micrograms/kg/injection, vehicle: water); 155 % of control (dose: 500.0 micrograms/kg/injection, vehicle: water).
Consider `CCOC(=O)CNC(=O)Sc1ccc(C(C)(C)C)cc1`, for which the T/C runs as follows: under setting [4], 100 % of control; (dose: 25.0 mg/kg/injection, vehicle: Klucel (hydroxypropylcellulose) (HPC)) 100 % of control; (dose: 50.0 mg/kg/injection, vehicle: Klucel (hydroxypropylcellulose) (HPC)) 102 % of control; under setting [5], 105 % of control; under setting [6], 115 % of control.
In the case of `N=C1CCCS1`, the T/C was 109 % of control under setting [7] and 120 % of control under setting [8].
Regarding `CC1=CC2c3cccc4[nH]cc(c34)CC2N(C)C1` (stereo not given), the T/C is, setting by setting: (dose: 2.5 mg/kg/injection, vehicle: suspension in saline) 103 % of control; (dose: 5.0 mg/kg/injection, vehicle: suspension in saline) 101 % of control; (dose: 10.0 mg/kg/injection, vehicle: suspension in saline) 101 % of control; (dose: 20.0 mg/kg/injection, vehicle: suspension in saline) 95 % of control.
On to `CC(Br)C(=O)c1ccc2cc(Br)c3ccccc3c2c1` (stereo not given), for which the T/C reads like this: under setting [9], 98 % of control; under setting [10], 100 % of control; under setting [11], 90 % of control.
As to `COC(C(=O)C(O)C(C)O)C1CC2C=C3C=C(OC4CC(OC5CC(O)C(OC)C(C)O5)C(OC(C)=O)C(C)O4)C(C)C(=O)C3=C(O)C2=C(O)C1OC1CC(OC2CC(OC3CC(C)(O)C(OC(=O)C(C)C)C(C)O3)C(O)C(C)O2)C(O)C(C)O1` (stereo not given), under “dose: 62.5 micrograms/kg/injection, vehicle: saline”, the T/C was 155 % of control.
With `[F][Sn]([F])([c]1ccccc1)[c]1ccccc1`, the T/C (dose: 1.56 mg/kg/injection, vehicle: Klucel (hydroxypropylcellulose) (HPC)) was 98 % of control; the T/C (dose: 3.12 mg/kg/injection, vehicle: Klucel (hydroxypropylcellulose) (HPC)) is 87 % of control; the T/C under setting [12] is 104 % of control; the T/C under setting [4] is 103 % of control.
As for `CCCCCCCCCCCCSC1=C(Cl)C(=O)C(OC)=C(OC)C1=O`, the T/C by setting is: under setting [9], 95 % of control and 102 % of control; under setting [10], 95 % of control and 103 % of control; under setting [11], 89 % of control and 94 % of control; under setting [13], 90 % of control and 100 % of control; under setting [14], 88 % of control and 101 % of control; under setting [15], 89 % of control.
`CN(C)N=Nc1ccc(Cl)c2ncccc12`: the T/C (dose: 3.13 mg/kg/injection, vehicle: other) is 115 % of control; the T/C (dose: 6.25 mg/kg/injection, vehicle: other) was 106 % of control; the T/C (dose: 12.5 mg/kg/injection, vehicle: other) is 109 % of control; the T/C (dose: 25.0 mg/kg/injection, vehicle: other) was 117 % of control; the T/C (dose: 50.0 mg/kg/injection, vehicle: other) was 114 % of control.
In the case of `NNc1nncc2ccccc12`, the T/C under setting [16] is 93 % of control, the T/C under setting [7] is 98 % of control and the T/C under setting [8] is 93 % of control.
As for `O=C(O)CC1C(=O)OC2C3COC(=O)c4cc(O)c(O)c(O)c4-c4c(cc(O)c(O)c4O)C(=O)OC2C(OC(=O)c2cc(O)c(O)c4c2C1C(O)C(=O)O4)C(OC(=O)c1cc(O)c(O)c(O)c1)O3` (stereo not given), the T/C was 94 % of control (dose: 6.25 mg/kg/injection, vehicle: saline); 99 % of control under setting [16]; 100 % of control under setting [7]; 88 % of control under setting [8].
As for `O=C(O)/C=C/C(=O)Nc1ccc(Cl)c(Cl)c1`, the T/C under setting [12] is 112 % of control and the T/C under setting [17] is 110 % of control.
Take `O=C1N[C@H]2[C@H](O)[C@H](O)[C@@H](O)[C@H](O)[C@@H]2c2cc3c(c(O)c21)OCO3`: the T/C runs as follows: (dose: 1.5 mg/kg/injection, vehicle: saline + alcohol) 100 % of control; (dose: 1.56 mg/kg/injection, vehicle: saline + alcohol) 108 % of control; (dose: 3.0 mg/kg/injection, vehicle: saline + alcohol) 103 % of control; (dose: 6.0 mg/kg/injection, vehicle: saline + alcohol) 114 % of control; (dose: 6.25 mg/kg/injection, vehicle: saline + alcohol) 110 % of control.
Consider `C=C1C(=O)OCC1C(=O)O` (stereo not given), for which the T/C (dose: 4.0 mg/kg/injection, vehicle: saline) was 102 % of control and 103 % of control; the T/C (dose: 8.0 mg/kg/injection, vehicle: saline) is 102 % of control; the T/C (dose: 16.0 mg/kg/injection, vehicle: saline) was 88 % of control and 93 % of control; the T/C (dose: 32.0 mg/kg/injection, vehicle: saline) was 93 % of control.
As for `NC(=O)CCC(NC(=O)OCC1c2ccccc2-c2ccccc21)C(=O)O` (stereo not given), the T/C is 98 % of control under setting [5], 93 % of control under setting [6] and 94 % of control under setting [17].
For the compound `CC(C)(C)OC(=O)NC(CCCCNC(=O)C(F)(F)F)C(=O)ON1C(=O)CCC1=O` (stereo not given), the T/C by setting is: under setting [11], 91 % of control; under setting [13], 94 % of control; under setting [14], 96 % of control and 102 % of control.
Take `CSCS(=O)C[C@H](CO)NC(=O)/C=C/c1c(C)[nH]c(=O)[nH]c1=O` (stereo not given in full): the T/C is 100 % of control and 104 % of control (dose: 0.03 mg/kg/injection, vehicle: saline); 112 % of control and 102 % of control (dose: 0.06 mg/kg/injection, vehicle: saline); 98 % of control and 102 % of control (dose: 0.12 mg/kg/injection, vehicle: saline); 118 % of control and 98 % of control under setting [1]; 102 % of control under setting [2]; 98 % of control under setting [3].
For the compound `C[n+]1c(/C=N/NC(N)=S)ccc2ccccc21`, the T/C is 92 % of control under setting [10]; 87 % of control under setting [11]; 92 % of control under setting [13]; 94 % of control under setting [14]; 92 % of control under setting [15].
